The assay concerns HCV 1b genotype replicon. Put plainly: HCV replicon drug screening assay (quantitative RT-PCR or luciferase), genotype 1b. The class given is cell-based. To be noted: Hepatitis C virus; HCV 1b genotype replicon; quantitative RT-PCR or luciferase assay; read-out: Genotype-1b replicon EC50 Range. The text has this: HCV replicon cell lines (kindly provided by R. Bartenschlager) isolated from colonies as described by Lohman et. al. (Lohman et al. (1999) Science 285: 110-113, expressly incorporated by reference in its entirety) and used for all experiments. The HCV replicon has the nucleic acid sequence set forth in EMBL Accession No.: AJ242651, the coding sequence of which is from nucleotides 1801 to 8406.
The coding sequence of the published HCV replicon was synthesized and subsequently assembled in a modified plasmid pBR322 (Promega, Madison, Wis.) using standard molecular biology techniques. One replicon cell line (“SGR 11-7”) stably expresses HCV replicon RNA which consists of (i) the HCV 5′UTR fused to the first 12 amino acids of the capsid protein, (ii) the neomycin phosphotransferase gene (neo), (iii) the IRES from encephalomyocarditis virus (EMCV), and (iv) HCV NS2 to NS5B genes and the HCV 3′UTR. Another replicon cell line (“Huh-luc/neo-ET”) described by Vrolijk et. al. (Vrolijk et. al. (2003) Journal of Virological Methods 110:201-209, expressly incorporated by reference in its entirety) stably expresses HCV replicon RNA which consists of (i) the HCV 5′UTR fused to the first 12 amino acids of the capsid protein, (ii) the firefly luciferase reporter gene, (iii) the ubiquitin gene, (iv) the neomycin phosphotransferase gene (neo), (v) the IRES from encephalomyocarditis virus (EMCV), and (vi) HCV NS3 to NS5B genes that harbor cell culture adaptive mutations (E1202G, T12801, K1846T) and the HCV 3′UTR.
These cell lines are maintained at 37° C., 5% CO2, 100% relative humidity in DMEM (Cat#11965-084, Invitrogen), with 10% fetal calf serum (“FCS”, Invitrogen), 1% non-essential amino acids (Invitrogen), 1% of Glutamax (Invitrogen), 1% of 100× penicillin/streptomycin (Cat#15140-122, Invitrogen) and Geneticin (Cat#10131-027, Invitrogen) at 0.75 mg/ml or 0.5 mg/ml for 11-7 and Huh-luc/neo-ET cells, respectively.
EC50 values of single agent compounds and combinations were determined by HCV RNA detection using quantitative RT-PCR, according to the manufacturer's instructions, with a TAQMAN® One-Step RT-PCR Master Mix Reagents Kit (Cat#AB 4309169, Applied Biosystems) on an ABI Model 7500 thermocycler. The TaqMan primers to use for detecting and quantifying HCV RNA are 5′-GCTGCGGCCTGTCGAGCT-3′ (SEQ ID NO: 1), 5′-CAAGGTCGTCTCCGCATAC-3′ (SEQ ID NO: 2) and the probe 5′-FAM-[…]-BHQ-3′ (SEQ ID NO: 3) obtained from Integrated DNA Technologies. HCV RNA is normalized to GAPDH RNA levels in drug-treated cells, which is detected and quantified using the Human GAPDH Endogenous Control Mix (Applied Biosystems, AB 4310884E). Total cellular RNA is purified from 96-well plates using the RNAqueous 96 kit (Ambion, Cat#AM1812). Chemical agent cytotoxicity was evaluated using an MTS assay according to the manufacturer's directions (Promega).
The compounds described herein can be effective against the HCV 1b genotype. It should also be understood that the compounds can inhibit multiple genotypes of HCV. In one embodiment, compounds of Formula (I) are active against the 1a, 1b, 2a, 2b, 3a, 4a, and 5a genotypes. […] The EC50 ranges were classified into the following groups: A>10 nM; B 1-10 nM; C<1 nM. The potential cytotoxicities of each agent were analyzed in parallel by MTS assay and are greater than 3 uM for all agents.

Molecules are shown by their SMILES.

As to `COC(=O)N[C@H](C(=O)N1CCC[C@H]1c1nc(-c2ccc(C#Cc3ccc4[nH]c([C@@H]5CCCN5C(=O)[C@H](NC(=O)OC)C(C)C)nc4c3)cc2)c[nH]1)C(C)C` [Compound 83], the EC50 (as a rule, the concentration at which the effect is half-maximal) is less than 1 nM. The same measure for `COC(=O)N[C@H](C(=O)N1CCC[C@H]1c1nc2cc(C#Cc3ccc(-c4c[nH]c([C@@H]5CCCN5C(=O)[C@@H](NC(=O)OC)C(C)C)n4)cc3)ccc2[nH]1)c1ccccc1` [Compound 84]: less than 1 nM; for `COC(=O)N[C@H](C(=O)N1CCC[C@H]1c1nc2cc(C#Cc3ccc(-c4c[nH]c([C@@H]5CCCN5C(=O)OC(C)(C)C)n4)cc3)ccc2[nH]1)C(C)C` [Compound 85]: less than 1 nM.

On to `COC(=O)N[C@H](C(=O)N1CCC[C@H]1c1nc2cc(C#Cc3ccc(-c4c[nH]c([C@@H]5CCCN5C(=O)[C@@H](NC(C)=O)C(C)C)n4)cc3)ccc2[nH]1)C(C)C` [Compound 86], for which the concentration giving a half-maximal response (EC50) is less than 1 nM. The same measure for `COC(=O)N[C@H](C(=O)N1CCC[C@H]1c1nc2cc(C#Cc3ccc(-c4c[nH]c([C@@H]5CCCN5C(=O)[C@@H](c5ccccc5)C(C)C)n4)cc3)ccc2[nH]1)C(C)C` [Compound 87]: less than 1 nM. On to `COC(=O)N[C@H](C(=O)N1CCC[C@H]1c1nc2cc(C#Cc3ccc(-c4c[nH]c([C@@H]5CCCN5C(=O)[C@H](NC(=O)OC)C(C)C)n4)cc3)ccc2[nH]1)C(C)C` [Compound 88], for which the EC50 is less than 1 nM.

As to `COC(=O)N[C@H](C(=O)N1CCC[C@H]1c1nc(-c2ccc(C#Cc3ccc4[nH]c([C@@H]5CCCN5C(=O)[C@@H](NC(=O)OC)C(C)C)nc4c3)cc2)c[nH]1)c1ccccc1` [Compound 89], the EC50 is less than 1 nM.

On to `COC(=O)N[C@H](C(=O)N1CCC[C@H]1c1nc(-c2ccc(C#Cc3ccc4[nH]c([C@@H]5C[C@@H](O)CN5C(=O)[C@@H](NC(=O)OC)C(C)C)nc4c3)cc2)c[nH]1)C(C)C` [Compound 91], for which the concentration for a half-maximal effect (EC50) is less than 1 nM. In the case of `COC(=O)N[C@H](C(=O)N1CCC[C@H]1c1nc(-c2ccc(C#Cc3ccc4[nH]c([C@@H]5CC(F)(F)CN5C(=O)[C@@H](NC(=O)OC)C(C)C)nc4c3)cc2)c[nH]1)C(C)C` [Compound 92], the EC50 was less than 1 nM. On to `COC(=O)N[C@H](C(=O)N1CC2(CC2)C[C@H]1c1nc(-c2ccc(C#Cc3ccc4[nH]c([C@@H]5CCCN5C(=O)[C@@H](NC(=O)OC)C(C)C)nc4c3)cc2)c[nH]1)C(C)C` [Compound 94], for which the EC50 is less than 1 nM. The result for `CC[C@H](C)[C@H](NC(=O)OC)C(=O)N1CCC[C@H]1c1ncc(-c2ccc(C#Cc3ccc4nc([C@@H]5CCCN5C(=O)[C@@H](NC(=O)OC)[C@@H](C)CC)[nH]c4c3)cc2)[nH]1` [Compound 96] reads less than 1 nM. Regarding `COC(=O)N[C@H](C(=O)N1CCC[C@H]1c1ncc(-c2ccc(C#Cc3ccc4nc([C@@H]5CCCN5C(=O)[C@@H](NC(=O)OC)[C@@H](C)O)[nH]c4c3)cc2)[nH]1)[C@@H](C)O` [Compound 97], the EC50 is less than 1 nM.

Regarding `COC(=O)N[C@H](C(=O)N1CCC[C@H]1c1ncc(-c2ccc(C#Cc3ccc4nc([C@@H]5CCCN5C(=O)[C@@H](NC(=O)OC)C5CC5)[nH]c4c3)cc2)[nH]1)C(C)C` [Compound 98], the EC50 was less than 1 nM. As to `COC(=O)N[C@H](C(=O)N1CCC[C@H]1c1ncc(-c2ccc(C#Cc3ccc4nc([C@@H]5CCCN5C(=O)[C@@H](NC(=O)OC)C(C)(C)C)[nH]c4c3)cc2)[nH]1)C(C)C` [Compound 99], the half-maximal effective concentration (EC50) was less than 1 nM. For `COC(=O)N[C@H](C(=O)N1CCC[C@H]1c1ncc(-c2ccc(C#Cc3ccc4nc([C@@H]5CCCN5C(=O)[C@@H](NC(=O)OC)C(C)(C)O)[nH]c4c3)cc2)[nH]1)C(C)C` [Compound 100], the EC50 is less than 1 nM. The same measure for `COC(=O)N[C@H](C(=O)N1CCC[C@H]1c1ncc(-c2ccc(C#Cc3ccc4nc([C@@H]5CCCN5C(=O)[C@@H](NC(=O)OC)[C@H](C)O)[nH]c4c3)cc2)[nH]1)C(C)C` [Compound 101]: less than 1 nM; for `CCC(NC(=O)OC)(C(=O)N1CCC[C@H]1c1nc2ccc(C#Cc3ccc(-c4cnc([C@@H]5CCCN5C(=O)[C@@H](NC(=O)OC)C(C)C)[nH]4)cc3)cc2[nH]1)c1ccccc1` (stereo partly shown) [Compound 102]: less than 1 nM; for `COC(=O)N[C@@H](C(=O)N1CCC[C@H]1c1nc2ccc(C#Cc3ccc(-c4cnc([C@@H]5CCCN5C(=O)[C@H](NC(=O)OC)c5ccccc5)o4)cc3)cc2[nH]1)c1ccccc1` [Compound 103]: less than 1 nM. `COC(=O)N[C@@H](C(=O)N1CCC[C@H]1c1nc2ccc(CCc3ccc(-c4cnc([C@@H]5CCCN5C(=O)[C@H](NC(=O)OC)c5ccccc5)o4)cc3)cc2[nH]1)c1ccccc1` [Compound 104]: the concentration giving a half-maximal response (EC50) is less than 1 nM. The result for `COC(=O)N[C@H](C(=O)N1C[C@H](O)C[C@H]1c1ncc(-c2ccc(C#Cc3ccc4nc([C@@H]5CCCN5C(=O)[C@@H](NC(=O)OC)C(C)C)[nH]c4c3)cc2)[nH]1)C(C)C` [Compound 105] reads less than 1 nM; that for `COC(=O)N[C@H](C(=O)N1CCC[C@H]1c1ncc(-c2ccc(C#Cc3ccc4nc([C@@H]5C[C@@H](F)CN5C(=O)[C@@H](NC(=O)OC)C(C)C)[nH]c4c3)cc2)[nH]1)C(C)C` [Compound 106], less than 1 nM. The same measure for `COC(=O)N[C@H](C(=O)N1CCC[C@H]1c1ncc(-c2ccc(C#Cc3ccc4nc([C@@H]5C[C@H]6C[C@H]6N5C(=O)[C@@H](NC(=O)OC)C(C)C)[nH]c4c3)cc2)[nH]1)C(C)C` [Compound 107]: less than 1 nM; for `COC(=O)N[C@H](C(=O)N1CCC[C@H]1c1ncc(-c2ccc(C#Cc3ccc4nc([C@@H]5CC[C@H](C)N5C(=O)[C@@H](NC(=O)OC)C(C)C)[nH]c4c3)cc2)[nH]1)C(C)C` [Compound 108]: less than 1 nM; for `COC(=O)N[C@H](C(=O)N1CCC[C@H]1c1ncc(-c2ccc(C#Cc3ccc4nc([C@@H]5C[C@H](F)CN5C(=O)[C@@H](NC(=O)OC)C(C)C)[nH]c4c3)cc2)[nH]1)C(C)C` [Compound 109]: less than 1 nM. Take `COC(=O)N[C@H](C(=O)N1CCC[C@H]1c1ncc(-c2ccc(C#Cc3cc4[nH]c([C@@H]5CCCN5C(=O)[C@@H](NC(=O)OC)C(C)C)nc4cc3OC)cc2)[nH]1)C(C)C` [Compound 110]: the EC50 is less than 1 nM. The result for `COC(=O)N[C@@H](C(=O)N1CCC[C@H]1c1nc2cc(-c3ccc(-c4cnc5[nH]c([C@@H]6CCCN6C(=O)[C@H](NC(=O)OC)c6ccccc6)nc5c4)cc3)cnc2[nH]1)c1ccccc1` [Compound 112] reads less than 1 nM; that for `COC(=O)N[C@H](C(=O)N1CCC[C@H]1c1nc(-c2ccc(C#Cc3ccc4[nH]c([C@@H]5CCCN5C(=O)[C@@H](NC(=O)OC)C(C)C)nc4n3)cc2)c[nH]1)C(C)C` [Compound 113], less than 1 nM; that for `COC(=O)N[C@H](C(=O)N1CCC[C@H]1c1nc(-c2ccc3cc(-c4ccc5[nH]c([C@@H]6CCCN6C(=O)[C@@H](NC(=O)OC)C(C)C)nc5n4)ccc3c2)c[nH]1)C(C)C` [Compound 114], less than 1 nM.

In the case of `COC(=O)N[C@@H](C(=O)N1CCC[C@H]1c1cc2cc(C#Cc3ccc(-c4c[nH]c([C@@H]5CCCN5C(=O)[C@H](NC(=O)OC)c5ccccc5)n4)cc3)ccc2[nH]1)c1ccccc1` [Compound 116], the EC50 is less than 1 nM. Take `C=C1C[C@@H](c2nc3cc(C#Cc4ccc(-c5c[nH]c([C@@H]6CCCN6C(=O)[C@@H](NC(=O)OC)C(C)C)n5)cc4)ccc3[nH]2)N(C(=O)[C@@H](NC(=O)OC)C(C)C)C1` [Compound 117]: the EC50 was less than 1 nM.

As to `C=C1C[C@@H](c2nc(-c3ccc(C#Cc4ccc5[nH]c([C@@H]6CCCN6C(=O)[C@@H](NC(=O)OC)C(C)C)nc5c4)cc3)c[nH]2)N(C(=O)[C@@H](NC(=O)OC)C(C)C)C1` [Compound 118], the EC50 is less than 1 nM.

For the origin of these results see patent US9060971B2, “Combination pharmaceutical agents as inhibitors of HCV replication” (Enanta Pharmaceuticals, Inc., priority 2010, dated 2015).
